Test results: patent US12655116B2, “Substituted isophthalic acid diamides” (Bayer Aktiengesellschaft, priority 2020, dated 2026)

Assays:
MATIN [1] = experiment: Post-emergence herbicidal action against MATIN; type: in vivo, Matricaria inodora
Procedure, shortened: (§1)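 A WP or EC formulation diluted in water with 0.2% wetting agent was sprayed at 600 to 800 l/ha onto one-leaf-stage plants grown in sandy loam. About 3 weeks later, action was rated visually in percent, 100% being dead plants.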

ALOMY [2] = experiment: Post-emergence herbicidal action against ALOMY; type: in vivo, Alopecurus myosuroides; details: dosage 20 g/ha, visual assessment about 3 weeks after treatment vs untreated controls
Procedure, shortened: as §1

DIGSA [3] = experiment: Post-emergence herbicidal action against DIGSA; type: in vivo, Digitaria sanguinalis
Procedure, shortened: as §1

AVEFA [4] = experiment: Post-emergence herbicidal action against AVEFA; type: in vivo, Avena fatua; details: Avena fatua, 504 h, visual assessment about 3 weeks after treatment, 100% = plants have died, 0% = like control plants
Procedure, shortened: as §1

ABUTH [5] = experiment: Post-emergence herbicidal action against ABUTH; type: in vivo, Abutilon theophrasti; details: visual assessment about 3 weeks after treatment vs untreated controls
Procedure, shortened: as §1

STEME [6] = experiment: Post-emergence herbicidal action against STEME; type: in vivo, Stellaria media
Procedure, shortened: as §1

HORMU = experiment: Pre-emergence herbicidal action against HORMU; type: in vivo, Hordeum murinum; details: 80 g/ha, pre-emergence
Source text: Seeds of monocotyledonous and dicotyledonous weed plants and crop plants are laid out in sandy loam soil in wood-fiber pots and covered with soil. The compounds of the invention, formulated in the form of wettable powders (WP) or as emulsion concentrates (EC), are then applied to the surface of the covering soil in the form of an aqueous suspension or emulsion at a water application rate equivalent to 600 to 800 l/ha, with addition of 0.2% wetting agent. After the treatment, the pots are placed in a greenhouse and kept under good growth conditions for the trial plants. The damage to the test plants is scored visually after a test period of 3 weeks by comparison with untreated controls (herbicidal activity in percent (%): 100% activity=the plants have died, 0% activity=like control plants). […] The tables below illustrate, in an illustrative manner, the post-emergence herbicidal action of the compounds of the invention, the herbicidal activity being stated in percent.

AMARE [7] = experiment: Post-emergence herbicidal action against AMARE; type: in vivo, Amaranthus retroflexus; details: 20 g/ha, visual assessment about 3 weeks after treatment, 100% = plants have died, 0% = like control plants
Procedure, shortened: as §1

ALOMY [8] = experiment: Pre-emergence herbicidal action against ALOMY; type: in vivo, Alopecurus myosuroides; details: pre-emergence
Procedure, shortened: (§2)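 Greenhouse pots of sandy loam held seeds covered with soil, onto which the compound was applied before emergence. An aqueous suspension or emulsion of WP or EC was used at 600 to 800 l/ha with 0.2% wetting agent. Percent damage was judged visually at 3 weeks.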

VERPE [9] = experiment: Post-emergence herbicidal action against VERPE; type: in vivo, Veronica persica; details: Veronica persica, 504 h, 20 g/ha
Procedure, shortened: as §1

SETVI [10] = experiment: Pre-emergence herbicidal action against SETVI; type: in vivo, Setaria viridis
Procedure, shortened: as §2

ECHCG [11] = experiment: Post-emergence herbicidal action against ECHCG; type: in vivo, Echinochloa crus-galli
Procedure, shortened: as §1

POLCO = experiment: Pre-emergence herbicidal action against POLCO; type: in vivo, Polygonum convolvulus; details: Fallopia convolvulus, 504 h, dosage 80 g/ha
Procedure, shortened: as §2

PHBPU [12] = experiment: Post-emergence herbicidal action against PHBPU; type: in vivo, Pharbitis purpurea; details: Ipomoea purpurea, 504 h
Procedure, shortened: as §1

LOLRI = experiment: Pre-emergence herbicidal action against LOLRI; type: in vivo, Lolium rigidum; details: 80 g/ha
Procedure, shortened: as §2

ABUTH [13] = experiment: Pre-emergence herbicidal action against ABUTH; type: in vivo, Abutilon theophrasti
Procedure, shortened: as §2

SETVI [14] = experiment: Post-emergence herbicidal action against SETVI; type: in vivo, Setaria viridis
Procedure, shortened: as §1

ECHCG [15] = experiment: Pre-emergence herbicidal action against ECHCG; type: in vivo, Echinochloa crus-galli; details: 80 g/ha
Procedure, shortened: as §2

AVEFA [16] = experiment: Pre-emergence herbicidal action against AVEFA; type: in vivo, Avena fatua; details: 80 g/ha, pre-emergence
Procedure, shortened: as §2

VIOTR [17] = experiment: Post-emergence herbicidal action against VIOTR; type: in vivo, Viola tricolor; details: Viola tricolor, 504 h
Procedure, shortened: as §1

STEME [18] = experiment: Pre-emergence herbicidal action against STEME; type: in vivo, Stellaria media
Procedure, shortened: as §2

VIOTR [19] = experiment: Pre-emergence herbicidal action against VIOTR; type: in vivo, Viola tricolor
Procedure, shortened: as §2

DIGSA [20] = experiment: Pre-emergence herbicidal action against DIGSA; type: in vivo, Digitaria sanguinalis
Procedure, shortened: as §2

MATIN [21] = experiment: Pre-emergence herbicidal action against MATIN; type: in vivo, Matricaria inodora
Procedure, shortened: as §2

AMARE [22] = experiment: Pre-emergence herbicidal action against AMARE; type: in vivo, Amaranthus retroflexus
Procedure, shortened: as §2

PHBPU [23] = experiment: Pre-emergence herbicidal action against PHBPU; type: in vivo, Pharbitis purpurea; details: dosage 80 g/ha
Procedure, shortened: as §2

VERPE [24] = experiment: Pre-emergence herbicidal action against VERPE; type: in vivo, Veronica persica; details: dosage 80 g/ha
Procedure, shortened: as §2

[25] = Tripleurospermum inodorum, 504 h, dosage 20 g/ha
[26] = Setaria viridis, 504 h, dosage 20 g/ha
[27] = 80 g/ha, scored visually after 3 weeks vs untreated controls (100% = plants have died, 0% = like control plants)

## CCNC(=O)c1c(C(F)(F)F)ccc(C(=O)Nc2nnnn2CC)c1Br [Example 2-208]
MATIN [1]; [25]
  pest or weed control at 20 g/ha: 80%
ALOMY [2]; Alopecurus myosuroides, 504 h
  pest or weed control at 20 g/ha: 80%
DIGSA [3]; Digitaria sanguinalis, 504 h, 5 g/ha
  pest or weed control at 5 g/ha: 80%
DIGSA [3]; Digitaria sanguinalis, 504 h, 20 g/ha
  pest or weed control at 20 g/ha: 90%
AVEFA [4]; 5 g/ha
  pest or weed control at 5 g/ha: 80%
AVEFA [4]; 20 g/ha
  pest or weed control at 20 g/ha: 90%
ABUTH [5]; Abutilon theophrasti, 504 h, dosage 5 g/ha
  pest or weed control at 5 g/ha: 90%
ABUTH [5]; Abutilon theophrasti, 504 h, dosage 20 g/ha
  pest or weed control at 20 g/ha: 90%
STEME [6]; Stellaria media, 504 h, 20 g/ha
  pest or weed control at 20 g/ha: 100%
STEME [6]; Stellaria media, 504 h, dosage 5 g/ha
  pest or weed control at 5 g/ha: 80%
HORMU; Hordeum murinum, 504 h
  pest or weed control at 80 g/ha: 90%
AMARE [7]; Amaranthus retroflexus, 504 h
  pest or weed control at 20 g/ha: 100%
ALOMY [8]; Alopecurus myosuroides, 504 h, 80 g/ha, scored visually after 3 weeks vs untreated controls (100% = plants have died, 0% = like control plants)
  pest or weed control at 80 g/ha: 90%
ALOMY [8]; Alopecurus myosuroides, 504 h, 20 g/ha, scored visually after 3 weeks, 100% = plants have died, 0% = like control plants
  pest or weed control at 20 g/ha: 80%
VERPE [9]
  pest or weed control at 20 g/ha: 80%
SETVI [10]; [26]
  pest or weed control at 20 g/ha: 80%
SETVI [10]; Setaria viridis, 504 h, dosage 80 g/ha
  pest or weed control at 80 g/ha: 100%
ECHCG [11]; Echinochloa crus-galli, 504 h, dosage 20 g/ha
  pest or weed control at 20 g/ha: 80%
POLCO
  pest or weed control at 80 g/ha: 90%
PHBPU [12]; dosage 5 g/ha
  pest or weed control at 5 g/ha: 80%
PHBPU [12]; dosage 20 g/ha
  pest or weed control at 20 g/ha: 80%
LOLRI; Lolium rigidum, 504 h
  pest or weed control at 80 g/ha: 80%
ABUTH [13]; Abutilon theophrasti, 504 h, 80 g/ha, scored visually after 3 weeks vs untreated controls (100% = plants have died, 0% = like control plants)
  pest or weed control at 80 g/ha: 100%
ABUTH [13]; Abutilon theophrasti, 504 h, dosage 20 g/ha, scored visually after 3 weeks vs untreated controls, 100% = plants have died, 0% = like control plants, read-out: Pre-emergence action against ABUTH (herbicidal activity in percent)
  pest or weed control at 20 g/ha: 100%
SETVI [14]; Setaria viridis, 504 h, dosage 5 g/ha
  pest or weed control at 5 g/ha: 80%
SETVI [14]; [26]
  pest or weed control at 20 g/ha: 80%
ECHCG [15]; Echinochloa crus-galli, 504 h
  pest or weed control at 80 g/ha: 100%
AVEFA [16]; Avena fatua, 504 h
  pest or weed control at 80 g/ha: 100%
VIOTR [17]; 5 g/ha
  pest or weed control at 5 g/ha: 100%
VIOTR [17]; 20 g/ha
  pest or weed control at 20 g/ha: 100%
STEME [18]; Stellaria media, 504 h, dosage 20 g/ha
  pest or weed control at 20 g/ha: 100%
STEME [18]; Stellaria media, 504 h, dosage 80 g/ha
  pest or weed control at 80 g/ha: 100%
VIOTR [19]; Viola tricolor, 504 h, dosage 20 g/ha
  pest or weed control at 20 g/ha: 100%
VIOTR [19]; Viola tricolor, 504 h, dosage 80 g/ha
  pest or weed control at 80 g/ha: 100%
DIGSA [20]; Digitaria sanguinalis, 504 h, dosage 20 g/ha
  pest or weed control at 20 g/ha: 90%
DIGSA [20]; Digitaria sanguinalis, 504 h, dosage 80 g/ha
  pest or weed control at 80 g/ha: 100%
MATIN [21]; [25]
  pest or weed control at 20 g/ha: 100%
MATIN [21]; Tripleurospermum inodorum, 504 h, dosage 80 g/ha
  pest or weed control at 80 g/ha: 100%
AMARE [22]; Amaranthus retroflexus, 504 h, 20 g/ha, scored visually after 3 weeks vs untreated controls, 100% = plants have died, 0% = like control plants
  pest or weed control at 20 g/ha: 100%
AMARE [22]; Amaranthus retroflexus, 504 h, 80 g/ha, scored visually after 3 weeks vs untreated controls, 100% = plants have died, 0% = like control plants
  pest or weed control at 80 g/ha: 100%

## CCc1c(C(=O)Nc2nnnn2CC)ccc(C(F)(F)F)c1C(=O)NC1CC1 [Example 2-273]
MATIN [1]; dosage 5 g/ha
  Post-emergence action against MATIN in %: 80%
MATIN [1]; dosage 20 g/ha
  Post-emergence action against MATIN in %: 90%
ALOMY [2]
  Post-emergence action against ALOMY in %: 80%
DIGSA [3]; 5 g/ha
  Post-emergence action against DIGSA in %: 80%
DIGSA [3]; 20 g/ha
  Post-emergence action against DIGSA: 90%
ABUTH [5]; dosage 5 g/ha
  Post-emergence action against ABUTH in %: 90%
ABUTH [5]; dosage 20 g/ha
  Post-emergence action against ABUTH in %: 90%
STEME [6]; 20 g/ha
  Post-emergence action against STEME in %: 90%
STEME [6]; dosage 5 g/ha
  Post-emergence action against STEME in %: 80%
PHBPU [23]
  Pre-emergence action against PHBPU in %: 90%
HORMU
  Pre-emergence action against HORMU in %: 80%
AMARE [7]
  Post-emergence action at 20 g/ha against AMARE in %: 90%
ALOMY [8]; [27]
  Pre-emergence action against ALOMY (herbicidal activity): 90%
SETVI [10]; dosage 20 g/ha
  Pre-emergence action against SETVI in %: 80%
SETVI [10]; dosage 80 g/ha
  Pre-emergence action against SETVI in %: 90%
ECHCG [11]; dosage 5 g/ha
  Post-emergence action against ECHCG in %: 80%
ECHCG [11]; dosage 20 g/ha
  Post-emergence action against ECHCG in %: 90%
LOLRI
  Pre-emergence action against LOLRI in %: 80%
VERPE [24]
  Pre-emergence action against VERPE in %: 100%
ABUTH [13]; [27]
  Pre-emergence action against ABUTH (herbicidal activity): 90%
ABUTH [13]; dosage 20 g/ha, scored visually after 3 weeks vs untreated controls, 100% = plants have died, 0% = like control plants
  Pre-emergence action against ABUTH (herbicidal activity in percent): 90%
SETVI [14]; dosage 5 g/ha
  Post-emergence action against SETVI in %: 80%
SETVI [14]; dosage 20 g/ha
  Post-emergence action against SETVI in %: 90%
ECHCG [15]
  Pre-emergence action against ECHCG in %: 90%
AVEFA [16]
  Pre-emergence action against AVEFA in %: 90%
STEME [18]; dosage 20 g/ha
  Pre-emergence action against STEME in %: 90%
STEME [18]; dosage 80 g/ha
  Pre-emergence action against STEME in %: 90%
VIOTR [19]; dosage 20 g/ha
  Pre-emergence action against VIOTR in %: 90%
VIOTR [19]; dosage 80 g/ha
  Pre-emergence action against VIOTR in %: 100%
DIGSA [20]; dosage 20 g/ha
  Pre-emergence action against DIGSA in %: 100%
DIGSA [20]; dosage 80 g/ha
  Pre-emergence action against DIGSA in %: 100%
MATIN [21]; dosage 20 g/ha
  Pre-emergence action against MATIN in %: 100%
MATIN [21]; dosage 80 g/ha
  Pre-emergence action against MATIN in %: 100%
AMARE [22]; 20 g/ha, scored visually after 3 weeks vs untreated controls, 100% = plants have died, 0% = like control plants
  Pre-emergence action against AMARE in %: 90%
AMARE [22]; [27]
  Pre-emergence action against AMARE in %: 100%
